Assay results published in PubChem BioAssay AID1845216 (Molecular Pharmacology Branch, DTP, NCI, 2023).

Tested on: SW 982 tumor spheroid viability
Experiment: Anticancer human tumor SW 982 cell line growth inhibition;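 further: spheroids exposed to compound for 7 days before readout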
Conditions: spheroids with HUVEC and MSC; for IC50: curve of first compound; for viability, T/C: stronger effect = lower value
In short: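 Complex spheroids of malignant cells with endothelial cells and mesenchymal stem cells; agents alone or combined, from near clinical Cmax (or 10 microM if unknown) down in half-log steps, 0.25% DMSO final.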

[1] = second compound 30 pM, first compound 0.00949 µM
[2] = second compound 30 pM, first compound 0.03 µM
[3] = second compound 30 pM, first compound 0.0949 µM
[4] = second compound 30 pM, first compound 0.3 µM
[5] = second compound 30 pM, first compound 0.949 µM
[6] = second compound 30 pM, first compound 3 µM
[7] = second compound 94.9 pM, first compound 0.00949 µM
[8] = second compound 94.9 pM, first compound 0.03 µM
[9] = second compound 94.9 pM, first compound 0.0949 µM
[10] = second compound 94.9 pM, first compound 0.3 µM
[11] = second compound 94.9 pM, first compound 0.949 µM
[12] = second compound 94.9 pM, first compound 3 µM
[13] = second compound 0.0003 µM, first compound 0.00949 µM
[14] = second compound 0.0003 µM, first compound 0.03 µM
[15] = second compound 0.0003 µM, first compound 0.0949 µM
[16] = second compound 0.0003 µM, first compound 0.3 µM
[17] = second compound 0.0003 µM, first compound 0.949 µM
[18] = second compound 0.0003 µM, first compound 3 µM
[19] = second compound 0.000949 µM, first compound 0.00949 µM
[20] = second compound 0.000949 µM, first compound 0.03 µM
[21] = second compound 0.000949 µM, first compound 0.0949 µM
[22] = second compound 0.000949 µM, first compound 0.3 µM
[23] = second compound 0.000949 µM, first compound 0.949 µM
[24] = second compound 0.000949 µM, first compound 3 µM
[25] = second compound 0.003 µM, first compound 0.00949 µM
[26] = second compound 0.003 µM, first compound 0.03 µM
[27] = second compound 0.003 µM, first compound 0.0949 µM
[28] = second compound 0.003 µM, first compound 0.3 µM
[29] = second compound 0.003 µM, first compound 0.949 µM
[30] = second compound 0.003 µM, first compound 3 µM

SMILES	IC50 (second compound 30 pM) [nM]	IC50 (second compound 94.9 pM) [nM]	IC50 (second compound 0.0003 µM) [nM]	IC50 (second compound 0.000949 µM) [nM]	IC50 (second compound 0.003 µM) [nM]	viability, T/C [3] [%]	viability, T/C [4] [%]	viability, T/C [5] [%]	viability, T/C [6] [%]	viability, T/C [9] [%]	viability, T/C [10] [%]	viability, T/C [11] [%]	viability, T/C [12] [%]	viability, T/C [15] [%]	viability, T/C [16] [%]	viability, T/C [17] [%]	viability, T/C [18] [%]	viability, T/C [21] [%]	viability, T/C [22] [%]	viability, T/C [23] [%]	also measured
CNCc1ccc(-c2cc(-c3nc(-c4ccc(S(=O)(=O)C(C)C)cc4)cnc3N)on2)cc1 + COc1cc2c(cc1O)CCNC21CSC2c3c(OC(C)=O)c(C)c4c(c3C(COC1=O)N1C(O)C3Cc5cc(C)c(OC)c(O)c5C(C21)N3C)OCO4	211	131	107	< 9.49	< 9.49	78.3	33.4	23.8	2.48	55.9	26.4	18.9	2.12	47.9	28.2	16.5	2.22	28.2	15.9	9.5	viability, T/C [1]: 99.6%; viability, T/C [2]: 95.6%; viability, T/C [7]: 100%; viability, T/C [8]: 94%; viability, T/C [13]: 84.7%; viability, T/C [14]: 81%; viability, T/C [19]: 49.3%; viability, T/C [20]: 39.2%; viability, T/C [24]: 0.69%; viability, T/C [25]: 0.4%; viability, T/C [26]: 1.22%; viability, T/C [27]: 0.92%; viability, T/C [28]: 0.5%; viability, T/C [29]: 1.07%; viability, T/C [30]: 0.31%
Cc1sc2c(c1C)C(c1ccc(Cl)cc1)=NC(CC(=O)Nc1ccc(O)cc1)c1nnc(C)n1-2 (stereo not given) + COc1cc2c(cc1O)CCNC21CSC2c3c(OC(C)=O)c(C)c4c(c3C(COC1=O)N1C(O)C3Cc5cc(C)c(OC)c(O)c5C(C21)N3C)OCO4	257	344	482	9.49	< 9.49	75.5	46.2	28.5	23.6	71.1	53.8	33.2	21.6	70.4	68	24.9	13.6	64.8	19.2	4.8	viability, T/C [1]: 95.5%; viability, T/C [2]: 94.6%; viability, T/C [7]: 97.4%; viability, T/C [8]: 96.7%; viability, T/C [13]: 76.6%; viability, T/C [14]: 82.5%; viability, T/C [19]: 41.4%; viability, T/C [20]: 41.3%; viability, T/C [24]: 3.12%; viability, T/C [25]: 0.7%; viability, T/C [26]: 8.8%; viability, T/C [27]: 0.33%; viability, T/C [28]: 0.26%; viability, T/C [29]: 0.37%; viability, T/C [30]: 0.99%
Cn1ncnc1[C@H]1c2n[nH]c(=O)c3cc(F)cc(c23)N[C@@H]1c1ccc(F)cc1 + COc1cc2c(cc1O)CCNC21CSC2c3c(OC(C)=O)c(C)c4c(c3C(COC1=O)N1C(O)C3Cc5cc(C)c(OC)c(O)c5C(C21)N3C)OCO4	> 3000	2740	1830	< 9.49	< 9.49	85.9	85	76.3	52.6	82	82	66.3	48.6	70	76.1	54.6	46.6	25.2	27	14.8	viability, T/C [1]: 93.6%; viability, T/C [2]: 89.1%; viability, T/C [7]: 80.7%; viability, T/C [8]: 85.3%; viability, T/C [13]: 76%; viability, T/C [14]: 73.5%; viability, T/C [19]: 32.3%; viability, T/C [20]: 28.7%; viability, T/C [24]: 2.84%; viability, T/C [25]: 0.32%; viability, T/C [26]: 0.45%; viability, T/C [27]: 0.37%; viability, T/C [28]: 0.38%; viability, T/C [29]: 0.36%; viability, T/C [30]: 0.91%
O=C(c1cc(Cc2n[nH]c(=O)c3ccccc23)ccc1F)N1CCN(C(=O)C2CC2)CC1 + COc1cc2c(cc1O)CCNC21CSC2c3c(OC(C)=O)c(C)c4c(c3C(COC1=O)N1C(O)C3Cc5cc(C)c(OC)c(O)c5C(C21)N3C)OCO4	7800	16300	7270	< 94.9	< 94.9	96.8	93.2	97.8	71.7	93.1	91.4	92.6	76.2	74.4	80.7	70.5	70.8	32.8	27.3	26.8	viability, T/C (second compound 30 pM, first compound 9.49 µM): 47.4%; viability, T/C (second compound 30 pM, first compound 30 µM): 38.8%; viability, T/C (second compound 94.9 pM, first compound 9.49 µM): 59.8%; viability, T/C (second compound 94.9 pM, first compound 30 µM): 39.9%; viability, T/C (second compound 0.0003 µM, first compound 9.49 µM): 43.8%; viability, T/C (second compound 0.0003 µM, first compound 30 µM): 28.1%; viability, T/C [24]: 18.3%; viability, T/C (second compound 0.000949 µM, first compound 9.49 µM): 11.1%; viability, T/C (second compound 0.000949 µM, first compound 30 µM): 2.5%; viability, T/C [27]: 0.52%; viability, T/C [28]: 0.45%; viability, T/C [29]: 0.51%; viability, T/C [30]: 0.63%; viability, T/C (second compound 0.003 µM, first compound 9.49 µM): 0.83%; viability, T/C (second compound 0.003 µM, first compound 30 µM): 1.26%
